Assay results reported in ChEMBL document CHEMBL1201862, “PubChem BioAssay data set” (2004).
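The compound was tested at five concentrations on cells cultured in 96-well plates, with a 48-hour exposure period. GI50 marks 50% less growth.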 Calls of active or inactive are those of the source. No stated cut-off is given here; in the data, active = GI50 up to about 1.1 µM and inactive = higher.

Key:
Assay in all cases: DTP human tumour cell line panel, 48 h
[1] = test system: 786-0
[2] = test system: A498
[3] = test system: A549
[4] = test system: ACHN
[5] = test system: BT-549
[6] = test system: CAKI-1
[7] = test system: CCRF-CEM
[8] = test system: COLO 205
[9] = test system: DU-145
[10] = test system: EKVX
[11] = test system: HCC 2998
[12] = test system: HCT-116
[13] = test system: HCT-15
[14] = test system: HL-60
[15] = test system: HOP-62
[16] = test system: HOP-92
[17] = test system: HT-29
[18] = test system: Hs-578T
[19] = test system: IGROV-1
[20] = test system: K562
[21] = test system: KM12
[22] = test system: LOX IMVI
[23] = test system: M14
[24] = test system: MCF7
[25] = test system: MDA-MB-231
[26] = test system: MDA-MB-435
[27] = test system: MDA-N
[28] = test system: MOLT-4
[29] = test system: Malme-3M
[30] = test system: NCI-H226
[31] = test system: NCI-H23
[32] = test system: NCI-H460
[33] = test system: NCI-H522
[34] = test system: NCI/ADR-RES
[35] = test system: OVCAR-3
[36] = test system: OVCAR-4
[37] = test system: OVCAR-5
[38] = test system: OVCAR-8
[39] = test system: PC-3
[40] = test system: RPMI-8226
[41] = test system: RXF 393
[42] = test system: SF-268
[43] = test system: SF-295
[44] = test system: SF-539
[45] = test system: SK-MEL-28
[46] = test system: SK-MEL-2
[47] = test system: SK-MEL-5
[48] = test system: SK-OV-3
[49] = test system: SN12C
[50] = test system: SNB-19
[51] = test system: SNB-75
[52] = test system: SR
[53] = test system: SW-620
[54] = test system: T47D
[55] = test system: TK-10
[56] = test system: U-251
[57] = test system: UACC-257
[58] = test system: UACC-62
[59] = test system: UO-31

CCOC(=O)CCC(NC(=O)c1ccc(Nc2cnc3ccc(C(F)(F)F)cc3n2)cc1)C(=O)OCC (configuration not stated)
GI50 [1]: 10.5 µM (inactive)
GI50 [2]: 26.4 µM (inactive)
GI50 [3]: > 34.6 µM (inactive)
GI50 [4]: 24.9 µM (inactive)
GI50 [5]: 20.9 µM (inactive)
GI50 [6]: 12 µM (inactive)
GI50 [7]: > 100 µM (inactive)
GI50 [8]: > 100 µM (inactive)
GI50 [9]: > 26 µM (inactive)
GI50 [10]: 30.1 µM (inactive)
GI50 [11]: 81.1 µM (inactive)
GI50 [12]: 14.5 µM (inactive)
GI50 [13]: > 100 µM
GI50 [14]: > 100 µM (inactive)
GI50 [15]: 14.1 µM (inactive)
GI50 [16]: 8.36 µM (inactive)
GI50 [17]: > 80.5 µM (inactive)
GI50 [18]: 6.79 µM (inactive)
GI50 [19]: 10.9 µM (inactive)
GI50 [20]: > 100 µM (inactive)
GI50 [21]: 24.2 µM (inactive)
GI50 [22]: 36.7 µM (inactive)
GI50 [23]: > 100 µM (inactive)
GI50 [24]: 27.9 µM (inactive)
GI50 [25]: 4.59 µM (inactive)
GI50 [26]: > 80.9 µM (inactive)
GI50 [27]: > 100 µM (inactive)
GI50 [28]: 2.2 µM (inactive)
GI50 [29]: 41 µM (inactive)
GI50 [30]: 28.1 µM (inactive)
GI50 [31]: 35 µM (inactive)
GI50 [32]: 8.02 µM (inactive)
GI50 [33]: 65.6 µM (inactive)
GI50 [34]: 11 µM (inactive)
GI50 [35]: > 100 µM (inactive)
GI50 [36]: 8.2 µM (inactive)
GI50 [37]: > 100 µM (inactive)
GI50 [38]: 8.81 µM (inactive)
GI50 [39]: > 81.8 µM (inactive)
GI50 [40]: > 22.4 µM (inactive)
GI50 [41]: 15 µM (inactive)
GI50 [42]: 15 µM (inactive)
GI50 [43]: 31.1 µM (inactive)
GI50 [44]: 13.3 µM (inactive)
GI50 [45]: > 100 µM (inactive)
GI50 [46]: > 96.4 µM (inactive)
GI50 [47]: > 64.7 µM (inactive)
GI50 [48]: 16.5 µM (inactive)
GI50 [49]: > 83.8 µM (inactive)
GI50 [50]: 13 µM (inactive)
GI50 [51]: 8.24 µM (inactive)
GI50 [52]: > 100 µM (inactive)
GI50 [53]: > 70.6 µM (inactive)
GI50 [54]: 5.45 µM (inactive)
GI50 [55]: 4.97 µM (inactive)
GI50 [56]: 11.6 µM (inactive)
GI50 [57]: > 74.3 µM (inactive)
GI50 [58]: 20.6 µM (inactive)
GI50 [59]: 45.5 µM (inactive)

COc1cc2c3c(cc(Cl)nc3c1OC)C(O)(CC(=O)c1ccccc1)C(=O)N2 (configuration not stated)
GI50 [1]: 8.93 µM (inactive)
GI50 [2]: 18.4 µM (inactive)
GI50 [3]: 18 µM (inactive)
GI50 [4]: 14.9 µM (inactive)
GI50 [5]: 16.4 µM (inactive)
GI50 [6]: 17.5 µM (inactive)
GI50 [7]: 1.64 µM (inactive)
GI50 [8]: 24.3 µM (inactive)
GI50 [9]: 16.2 µM (inactive)
GI50 [10]: 5.14 µM (inactive)
GI50 [11]: 18.5 µM (inactive)
GI50 [12]: 4.69 µM (inactive)
GI50 [13]: 21.5 µM
GI50 [14]: 1.49 µM (inactive)
GI50 [15]: 19.2 µM (inactive)
GI50 [16]: 1.94 µM (inactive)
GI50 [17]: 21.7 µM (inactive)
GI50 [18]: 21.7 µM (inactive)
GI50 [19]: 13.2 µM (inactive)
GI50 [20]: 4.79 µM (inactive)
GI50 [21]: 17.3 µM (inactive)
GI50 [22]: 7.01 µM (inactive)
GI50 [23]: 16.4 µM (inactive)
GI50 [24]: 1.88 µM (inactive)
GI50 [25]: 13.8 µM (inactive)
GI50 [26]: 1.93 µM (inactive)
GI50 [27]: 1.93 µM (inactive)
GI50 [28]: 1.71 µM (inactive)
GI50 [29]: 2.38 µM (inactive)
GI50 [30]: 21.5 µM (inactive)
GI50 [31]: 17 µM (inactive)
GI50 [32]: 21 µM (inactive)
GI50 [33]: 2.89 µM (inactive)
GI50 [34]: 24.8 µM (inactive)
GI50 [35]: 15.6 µM (inactive)
GI50 [36]: 2.35 µM (inactive)
GI50 [37]: 19.1 µM (inactive)
GI50 [38]: 14 µM (inactive)
GI50 [39]: 15.3 µM (inactive)
GI50 [40]: 2.55 µM (inactive)
GI50 [41]: 13.4 µM (inactive)
GI50 [42]: 4.94 µM (inactive)
GI50 [43]: 17.9 µM (inactive)
GI50 [44]: 0.995 µM (active)
GI50 [45]: 16 µM (inactive)
GI50 [46]: 15.1 µM (inactive)
GI50 [47]: 15.9 µM (inactive)
GI50 [48]: 17.4 µM (inactive)
GI50 [49]: 6.79 µM (inactive)
GI50 [50]: 17.7 µM (inactive)
GI50 [51]: 14.8 µM (inactive)
GI50 [52]: 4.65 µM (inactive)
GI50 [53]: 4 µM (inactive)
GI50 [54]: 3.56 µM (inactive)
GI50 [55]: 18.1 µM (inactive)
GI50 [56]: 17.1 µM (inactive)
GI50 [57]: 8.15 µM (inactive)
GI50 [58]: 6.18 µM (inactive)
GI50 [59]: 13.3 µM (inactive)

COc1ccc(Nc2n[nH]c(NS(=O)(=O)c3cc(C)c(Cl)cc3S)n2)cc1
GI50 [1]: > 100 µM (inactive)
GI50 [2]: > 100 µM (inactive)
GI50 [3]: > 100 µM (inactive)
GI50 [4]: > 100 µM (inactive)
GI50 [5]: > 100 µM (inactive)
GI50 [6]: > 100 µM (inactive)
GI50 [7]: > 100 µM (inactive)
GI50 [8]: > 100 µM (inactive)
GI50 [9]: > 100 µM (inactive)
GI50 [10]: > 100 µM (inactive)
GI50 [11]: > 100 µM (inactive)
GI50 [12]: > 100 µM (inactive)
GI50 [13]: > 100 µM
GI50 [14]: > 100 µM (inactive)
GI50 [15]: > 100 µM (inactive)
GI50 [16]: > 100 µM (inactive)
GI50 [17]: > 100 µM (inactive)
GI50 [18]: > 100 µM (inactive)
GI50 [19]: > 100 µM (inactive)
GI50 [20]: > 100 µM (inactive)
GI50 [21]: > 100 µM (inactive)
GI50 [22]: > 100 µM (inactive)
GI50 [23]: > 100 µM (inactive)
GI50 [24]: > 100 µM (inactive)
GI50 [25]: > 100 µM (inactive)
GI50 [26]: > 100 µM (inactive)
GI50 [27]: > 100 µM (inactive)
GI50 [28]: > 100 µM (inactive)
GI50 [29]: > 100 µM (inactive)
GI50 [30]: > 100 µM (inactive)
GI50 [31]: > 100 µM (inactive)
GI50 [32]: > 100 µM (inactive)
GI50 [33]: > 100 µM (inactive)
GI50 [34]: > 100 µM (inactive)
GI50 [35]: > 100 µM (inactive)
GI50 [36]: > 100 µM (inactive)
GI50 [37]: > 100 µM (inactive)
GI50 [38]: > 100 µM (inactive)
GI50 [39]: > 100 µM (inactive)
GI50 [40]: > 100 µM (inactive)
GI50 [41]: > 100 µM (inactive)
GI50 [42]: > 100 µM (inactive)
GI50 [43]: > 100 µM (inactive)
GI50 [44]: > 100 µM (inactive)
GI50 [45]: > 100 µM (inactive)
GI50 [46]: > 100 µM (inactive)
GI50 [47]: > 100 µM (inactive)
GI50 [48]: > 100 µM (inactive)
GI50 [49]: > 100 µM (inactive)
GI50 [50]: > 100 µM (inactive)
GI50 [51]: > 100 µM (inactive)
GI50 [52]: > 100 µM (inactive)
GI50 [53]: > 100 µM (inactive)
GI50 [54]: > 100 µM (inactive)
GI50 [55]: > 100 µM (inactive)
GI50 [56]: > 100 µM (inactive)
GI50 [57]: > 100 µM (inactive)
GI50 [58]: > 100 µM (inactive)
GI50 [59]: > 100 µM (inactive)
